Earlier results on one molecule are cited in publication PMC6270209, “Synthesis, Antimycobacterial Activity and In Vitro Cytotoxicity of 5-Chloro-N-phenylpyrazine-2-carboxamides” (Molecules, 2013).

This data set concerns M. tbc strains (PZA-sensitive, PZA-resistant). Also noted: method as in PMID 9527809. As to conditions: cited from earlier work.

Turning to `NC(=O)c1cnc(Cl)cn1` [Compound 5-Cl-PZA, 5-chloropyrazine-2-carboxamide, reference compound], the “MIC for PZA-resistant strains” value (PZA-resistant strains) is 8 to 64 µg/mL. For the same molecule, the “MIC for PZA-sensitive M. tbc strains” value (PZA-sensitive strains) is 8 to 32 µg/mL.
